Test results taken from patent US20030162796A1, “Pharmaceutical composition for the treatment of disorders of non-human mammals” (priority 2001, published 2003).
Read-outs that look alike come from different tables or passages of the source.

Key:
[1] = Plasma levels of BIBX1382 of the treated mice; assay type: in vivo, nude mice; conditions: for concentration at 2 h / concentration at 6 h / concentration at 24 h: nude, mouse, plasma, oral, read-out: plasma level, mean; for concentration at 2 h: 2 h after last compound administration on day 46; for concentration at 6 h: 6 h after last compound administration on day 46; for concentration at 24 h: 24 h after last compound administration on day 46
Method: (§1) When tumors were established and had reached diameters of approximately 5 mm as measured with a calliper, mice were randomly distributed into groups of 10 animals so that each tumor size was equally represented in each treatment group. The time span between cell injection and randomisation/start of treatment was sixteen days. Starting ten days after randomisation, mice were treated once daily (at 24 hour intervals) with various doses of the test compound. Administration was intragastral using a gavage needle (Infusionskanule Olive A, Acufirm, No. 14 64 11-1). Therefore, the compound was suspended in 2.5% aqueous HP-beta-CD (hydroxy-propyl-beta-cyclodextrine)/1% aqueous Natrosol (hydroxyethylcellulose). Control mice received the vehicle only. The administration volume was 2.5 to 10 ml per kg mouse body weight. The solutions were proportioned and kept at −20° C.
(§2) The low dose group received 25 mg/kg/day (day 10-22) and 50 mg/kg/day (day 23-46) of BIBX1382; whereas the high dose group received 50 mg/kg/day (day 10-22), 70 mg/kg/day (day 23-30) and 100 mg/kg/day (day 31-46) of BIBX1382. The control group was treated with vehicle only.
With plasma levels of […] at 2 hours after oral compound administration a reduction of the growth rate to a T/C value of 62% was achieved.

SLU-1 cells = assay: 3H-Thymidin proliferation assay, SLU-1; assay type: cell-based, canine; conditions: inhibitor 5 nM-10000 nM
Method: (§3) The ability of BIBX1382 to inhibit the proliferation of cells in culture was tested with a ^3H-Thymidin proliferation assays. This assay was performed with three tumor cell lines (SLU-1, SLU-4, SH1b) and a normal cell line (CRL-6234).
(§4) A pilot experiment with 500 to 12.000 cells per well in a 96-well plate in the presence of different concentrations of FCS (0% to 10%) was performed. After different proliferation times (24 h, 48 h, 72 h and 96 h), 10 μl ^3H-Thymidin (1:100 in PBS) were added, after incubation the plate was frozen, then thawed and the cells were harvested. The ^3H-Thymidin incorporation rate was determined. […] To determine a possible growth inhibitory effect of the inhibitor BIBX1382 on the cell lines, different concentrations (5 nM-10000 nM) of the inhibitor were used. Again ^3H-Thymidin was added, after incubation the plate was frozen, then thawed and the cells were harvested. The ^3H-Thymidin incorporation rate was determined in dependance of the concentration of inhibitor.

CRL-6234 cells = assay: 3H-Thymidin proliferation assay, CRL-6234 (normal cell line); assay type: cell-based, canine
Method: as §3, §4

SLU-1 tumors = assay: Effect on tumor growth in nude mice (SLU-1 subcutaneous xenograft); assay type: in vivo
Method: The cell line SLU-1 was cultured as described in Example 2. For use in tumor experiments, cells were trypsinised, washed and suspended in PBS+5% FCS at 10^7 cells/ml. 2×10^6 SLU-1 cells were injected into 40 nude mice (5-10 week-old female Hsd:NMRI-nu/nu purchased from Harlan, The Netherlands for the in vivo experiment with BIBX1382.
as §1, §2
Tumors were measured three times a week (Monday, Wednesday and Friday) with a calliper. Volumes [in mm^3] were then calculated according to the formula (tumor volume=length*diameter^2*π/6). To monitor side effects of treatment, mice were inspected daily for abnormalities and weighed three times (Monday, Wednesday and Friday) a week.
Tumor volumes were expressed as mean absolute tumor volumes [in mm^3] and plotted over days of treatment.
The specific relative tumor volumes (T/C [%], i.e. the mean relative tumor volumes of groups of compound-treated tumors in % of the mean relative tumor volume of the vehicle-treated control tumors: T/C [%]=100*mean Vrel compound-treated/mean Vrel vehicle-treated) were determined on the day following the final day of treatment.
Experiments were usually terminated when vehicle control mice had to be killed because of large tumor sizes (1200 to 1700 mm^3).

SLU-4 cells = assay: 3H-Thymidin proliferation assay, SLU-4; assay type: cell-based, canine; conditions: inhibitor 5 nM-10000 nM
Method: as §3, §4

SH1b cells = assay: 3H-Thymidin proliferation assay, SH1b; assay type: cell-based, canine; conditions: FIG. 3
Method: as §3, §4
The ^3H-Thymidin proliferation assay was also done with the tumor cell line SH1b.

In the case of CN1CCC(Nc2ncc3ncnc(Nc4ccc(F)c(Cl)c4)c3n2)CC1 [BIBX1382, 4-((3-chloro-4-fluoro-phenyl)amino)-6-(1-methyl-4-piperidinyl-amino)-pyrimido(5,4d)pyrimidine], the plasma level ([1]; 2 hours after oral compound administration, level giving T/C 38%) is reported as “approximately 4000 mmol/l”, the concentration at 2 h ([1]; 50 mg/kg) is reported as 3.17 µM and the concentration at 6 h ([1]; 50 mg/kg) is reported as 2.85 µM. The concentration at 24 h ([1]; 50 mg/kg) was 0.394 µM, the concentration at 2 h ([1]; 100 mg/kg) was 4.16 µM and the concentration at 6 h ([1]; 100 mg/kg) was 4.09 µM. The concentration at 24 h ([1]; 100 mg/kg) was 0.591 µM, the “proliferation rate (3H-Thymidin incorporation)” value (SLU-1 cells) was “inhibited in their proliferation rate” and the “effect on normal cell line at high concentrations” value (CRL-6234 cells; high concentrations) was “toxic effects at high concentrations”. For the same compound, the “proliferation at lower concentration” value (CRL-6234 cells; lower concentration) was “not inhibited”, the SLU-1 tumor growth (SLU-1 tumors; all tested doses, oral once daily, FIGS. 4 and 5) was “influenced SLU-1 tumor growth at all tested doses” and the “T/C values compared to the vehicle control group (standard T-test)” value (SLU-1 tumors; both dose groups (low and high)) was “significantly lower”. The T/C (SLU-1 tumors; high dose group (Group 2), 50 → 70 → 100 mg/kg/day, after 100 mg/kg/day (day 31-46), day 47) was 38%, the T/C (SLU-1 tumors; high dose group after 50 mg/kg/day (day 10-22)) was 52% and the T/C (SLU-1 tumors; high dose group after 70 mg/kg/day (day 23-30)) was 53%. The “increase in tumor size at maximum” value (SLU-1 tumors; high dose group, 50 mg/kg/day, day 10-22, all ten tumors) was 5-6 fold, the “increase in tumor size” value (SLU-1 tumors; high dose group, 70 mg/kg/day, day 23-30) was “about 2 fold” and the “increase in tumor size” value (SLU-1 tumors; high dose group, 100 mg/kg/day, day 31-46) was 1.5-1.9 fold. The “increase in tumor size on average” value (SLU-1 tumors; high dose group, whole period of treatment) was 20 fold, the T/C (SLU-1 tumors; low dose group (Group 1), 25 → 50 mg/kg/day, after 50 mg/kg/day (day 23-46), day 47) was 62% and the T/C (SLU-1 tumors; low dose group after 25 mg/kg/day (day 10-22)) was 78%. For the same compound, the “increase in tumor size” value (SLU-1 tumors; low dose group, 25 mg/kg/day, day 10-22, 9 of 10 tumors) was 8 fold, the tumor volume change (SLU-1 tumors; low dose group, 25 mg/kg/day, day 10-22, one of 10 tumors) was “did not change at all” and the “increase in tumor size” value (SLU-1 tumors; low dose group, 50 mg/kg/day, day 23-46, all 10 tumors) was 3-6 fold. The “increase in tumor size on average” value (SLU-1 tumors; low dose group, whole period of treatment (day 10-46)) was 35 fold, the “proliferation rate (3H-Thymidin incorporation)” value (SLU-4 cells) was “not affected” and the “proliferation (3H-Thymidin incorporation)” value (SH1b cells) was “inhibited in its proliferation time”.
